As a reminder, the viability is a read-out of living cells in per cent, often relative to untreated cells.

This series is described as follows: qHTS cell viability (CellTiter-Glo, 72 h; primary screen), control cell line. It is filed as cell-based. The following applies: human, read-out: Percent viability. (In general: Quantitative high-throughput screening tests each substance at several concentrations.)

Take `COCCn1c2c([n+](Cc3cnccn3)c1C)C(=O)c1ccccc1C2=O` [sepantronium bromide, reference compound]: where the note is “CRL-7250 cells (control cell line), CRL-7250, Log (M) -4.33646”, the viability at 72 h, 46.1 µM was -4.6%. The viability at 72 h, 15.4 µM (CRL-7250 cells (control cell line), CRL-7250, Log (M) -4.81358) was 10.1%. Where the note is “CRL-7250 cells (control cell line), CRL-7250, Log (M) -5.2907”, the viability at 72 h, 5.12 µM was -5.4%. Also, under “CRL-7250 cells (control cell line), CRL-7250, Log (M) -5.76782”, the viability at 72 h, 1.71 µM is -4.8%. For the setting “CRL-7250 cells (control cell line), CRL-7250, Log (M) -6.24494”, the viability at 72 h, 569 nM is -8.6%. Further, for the setting “CRL-7250 cells (control cell line), CRL-7250, Log (M) -6.72207”, the viability at 72 h, 190 nM worked out at 39.2%. The viability at 72 h, 63.2 nM (CRL-7250 cells (control cell line), CRL-7250, Log (M) -7.19919) came out at 65.6%. Further, the viability at 72 h, 21.1 nM (CRL-7250 cells, CRL-7250, Log (M) -7.67631) came out at 101%. For the same molecule, under “CRL-7250 cells, CRL-7250, Log (M) -8.63055”, the viability at 72 h, 2.34 nM came out at 100%.
